What was measured:
[1] = system: HCV genotype 1a (H77 strain) replicon in HUH-7 cells; experiment: HCV replicon luciferase reporter assay, genotype 1a; assay type: cell-based; conditions: Hepatitis C virus, 72 h, genotype 1a replicon, 3 days incubation, read-out: LE_1a (EC50, range)
Text: (§1) An HCV replicon whole cell system was established as described by Lohmann V, Korner F, Koch J, Herian U, Theilmann L, Bartenschlager R., Science 285(5424):110-3 (1999) and modified to introduce a luciferase reporter, as first described by Krieger et al (Krieger N, Lohmann V, and Bartenschlager R, J. Virol. 75(10):4614-4624 (2001)). CDNA encoding a humanized form of the Renilla luciferase gene and a linker sequence fused directly to the 3′-end of the luciferase gene were introduced into the replicon construct using an Ascl restriction site located in core, directly upstream of the neomycin marker gene. The adaptive mutation at position 1179 (serine to isoleucine) was also introduced (Blight K J, Kolykhalov, A A, Rice, C M, Science 290(5498):1972-1974). A stable cell line constitutively expressing this HCV replicon construct was generated by first linearizing plasmid DNAs with ScaI. RNA transcripts were synthesized in vitro using the T7 MegaScript transcription kit (Ambion, Austin, Tex.) according to manufacturer's directions. In vitro transcripts of the cDNA were transfected into the human hepatoma cell line, HUH-7. […] Resulting cell lines were characterized for positive and negative strand RNA production and protein production over time.
A stable HCV replicon luciferase reporter cell line representing the genotype 1a H77 strain (Yanagi M, Purcell R H, Emerson S U, et al. Transcripts from a single full-length cDNA clone of hepatitis C virus are infectious when directly transfected into the liver of a chimpanzee. Proc Natl Acad Sci USA 1997; 94(16):8738-8743) was generated as described previously for the genotype 1b(Con1) replicon luciferase cell line. The replicon construct was modified by introducing mutations were introduced into the genes encoding the NS3 helicase domain (proline replaced by leucine at position 1496) and NS5A (serine to isoleucine at position 2204) to improve replication in cell culture.
(§2) HCV replicon luciferase assays were developed to monitor the inhibitory effects of compounds described in the disclosure on HCV genotypes 1a and 1b viral replication. HUH-7 cells, constitutively expressing the HCV replicon, were grown in Dulbecco's Modified Eagle Media (DMEM) (Gibco-BRL) containing 10% Fetal calf serum (FCS) (Sigma) and 1 mg/mL G418 (Gibco-BRL). Compounds were serially diluted 3 folds in DMSO for a twenty-point titration and subsequently transferred to sterile 384-well tissue-culture treated plates (Corning cat #3571). The plates were then seeded with 50 μL of cells at a density of 3.0×10^3 cells/well in DMEM containing 4% FCS (final DMSO concentration at 0.5%). After 3 days incubation at 37° C., cells were analyzed for Renilla Luciferase activity using the EnduRen as substrate (Promega cat #E6485). The EnduRen substrate was diluted in DMEM and then added to the plates to a final concentration of 7.5 μM. The plates were incubated for 2 hrs at 37° C. and then read immediately for 30 seconds with Viewlux Imager (PerkinElmer) using a luminescence program. To assess cytotoxicity of compounds, CC50 values were generated by multiplexing the EnduRen-containing plates with Cell Titer-Blue (Promega, cat # G8082). Cell-Titer Blue (3 μL) was added to each well and incubated for 8 hrs at 37° C. The fluorescence signal from each well was read, with an excitation wavelength at 525/10 nm and an emission wavelength of 598/10 nm, using the Viewlux Imager.
(§3) The EC50 values for compounds were calculated by using a four-parameter logistic equation: y=A+((B−A)/(1+((C/x)^D))), where A and B denotes minimal and maximal % inhibition, respectively, C is the EC50, D is the hill slope and x represents compound concentration.

[2] = system: HCV genotype 1b (Con1) replicon in HUH-7 cells; experiment: HCV replicon luciferase reporter assay, genotype 1b; assay type: cell-based; conditions: Hepatitis C virus, 72 h, genotype 1b replicon, 3 days incubation, read-out: LE_1b (EC50, range)
Text: as §1, §2, §3

| SMILES | EC50 [1] [nM] | EC50 [2] [nM] |
| --- | --- | --- |
| CC[C@@H]1O[C@H](C)CC/C=C\[C@@H]2C[C@@]2(C(=O)NS(=O)(=O)C2(C)CC2)NC(=O)[C@@H]2C[C@@H](Oc3nc4cc(OC)ccc4nc3C(F)(F)F)CN2C(=O)[C@H]1NC(=O)OC(C)(C)C(F)(F)F [Compound 1015, 1,1,1-trifluoro-2-methylpropan-2-yl ((2R,6S,7S,9R,13aS,14aR,16aS,Z)-7-ethyl-2-((7-methoxy-3-(trifluoromethyl)quinoxalin-2-yl)oxy)-9-methyl-14a-(((1-methylcyclopropyl)sulfonyl)carbamoyl)-5,16-dioxo-2,3,5,6,7,9,10,11,13a,14,14a,15,16,16a-tetradecahydro-1H-cyclopropa[i]pyrrolo[1,2-e][1,5,8]oxadiazacyclopentadecin-6-yl)carbamate] | 0.1 to 0.5 | 0.1 to 0.5 |
| CC[C@@H]1O[C@H](C)CC/C=C\[C@@H]2C[C@@]2(C(=O)NS(=O)(=O)C2(C)CC2)NC(=O)[C@@H]2C[C@@H](Oc3nc4cc(OC)ccc4nc3C(F)(F)F)CN2C(=O)[C@H]1NC(=O)OC(C)(C)C(C)(F)F [Compound 1016, 3,3-difluoro-2-methylbutan-2-yl ((2R,6S,7S,9R,13aS,14aR,16aS,Z)-7-ethyl-2-((7-methoxy-3-(trifluoromethyl)quinoxalin-2-yl)oxy)-9-methyl-14a-(((1-methylcyclopropyl)sulfonyl)carbamoyl)-5,16-dioxo-2,3,5,6,7,9,10,11,13a,14,14a,15,16,16a-tetradecahydro-1H-cyclopropa[i]pyrrolo[1,2-e][1,5,8]oxadiazacyclopentadecin-6-yl)carbamate] | 0.1 to 0.5 | 0.1 to 0.5 |
| CC[C@@H]1O[C@H](C)CC/C=C\[C@@H]2C[C@@]2(C(=O)NS(=O)(=O)C2(C)CC2)NC(=O)[C@@H]2C[C@@H](Oc3nc4c(c5cc(OC)c(F)cc35)CCCO4)CN2C(=O)[C@H]1NC(=O)OC(C)(C)C(F)(F)F [Compound 1017, 1,1,1-trifluoro-2-methylpropan-2-yl ((2R,6S,7S,9R,13aS,14aR,16aS,Z)-7-ethyl-2-((8-fluoro-9-methoxy-2,3-dihydro-1H-pyrano[2,3-c]isoquinolin-6-yl)oxy)-9-methyl-14a-(((1-methylcyclopropyl)sulfonyl)carbamoyl)-5,16-dioxo-2,3,5,6,7,9,10,11,13a,14,14a,15,16,16a-tetradecahydro-1H-cyclopropa[i]pyrrolo[1,2-e][1,5,8]oxadiazacyclopentadecin-6-yl)carbamate] | 0.51 to 1 | 0.51 to 1 |
| CC[C@@H]1O[C@H](C)CC/C=C\[C@@H]2C[C@@]2(C(=O)NS(=O)(=O)C2(C)CC2)NC(=O)[C@@H]2C[C@@H](Oc3cc(OC)nc4cc(OC)c(F)cc34)CN2C(=O)[C@H]1NC(=O)OC(C)(C)C(F)(F)F [Compound 1018, 1,1,1-trifluoro-2-methylpropan-2-yl ((2R,6S,7S,9R,13aS,14aR,16aS,Z)-7-ethyl-2-((6-fluoro-2,7-dimethoxyquinolin-4-yl)oxy)-9-methyl-14a-(((1-methylcyclopropyl)sulfonyl)carbamoyl)-5,16-dioxo-2,3,5,6,7,9,10,11,13a,14,14a,15,16,16a-tetradecahydro-1H-cyclopropa[i]pyrrolo[1,2-e][1,5,8]oxadiazacyclopentadecin-6-yl)carbamate] | 1.01 to 5 | 0.51 to 1 |
| CC[C@@H]1O[C@H](C)CC/C=C\[C@@H]2C[C@@]2(C(=O)NS(=O)(=O)C2(C)CC2)NC(=O)[C@@H]2C[C@@H](Oc3cc(OC)nc4cc(OC)ccc34)CN2C(=O)[C@H]1NC(=O)OC(C)(C)C(F)(F)F [Compound 1019, 1,1,1-trifluoro-2-methylpropan-2-yl ((2R,6S,7S,9R,13aS,14aR,16aS,Z)-2-((2,7-dimethoxyquinolin-4-yl)oxy)-7-ethyl-9-methyl-14a-(((1-methylcyclopropyl)sulfonyl)carbamoyl)-5,16-dioxo-2,3,5,6,7,9,10,11,13a,14,14a,15,16,16a-tetradecahydro-1H-cyclopropa[i]pyrrolo[1,2-e][1,5,8]oxadiazacyclopentadecin-6-yl)carbamate] | 1.01 to 5 | 0.1 to 0.5 |
| CC[C@@H]1O[C@H](C)CC/C=C\[C@@H]2C[C@@]2(C(=O)NS(=O)(=O)C2(C)CC2)NC(=O)[C@@H]2C[C@@H](Oc3cc(OC)nc4cc(OC)ccc34)CN2C(=O)[C@H]1NC(=O)OC(C)(C)C(C)(F)F [Compound 1020, 3,3-difluoro-2-methylbutan-2-yl ((2R,6S,7S,9R,13aS,14aR,16aS,Z)-2-((2,7-dimethoxyquinolin-4-yl)oxy)-7-ethyl-9-methyl-14a-(((1-methylcyclopropyl)sulfonyl)carbamoyl)-5,16-dioxo-2,3,5,6,7,9,10,11,13a,14,14a,15,16,16a-tetradecahydro-1H-cyclopropa[i]pyrrolo[1,2-e][1,5,8]oxadiazacyclopentadecin-6-yl)carbamate] | 1.01 to 5 | 0.51 to 1 |
| COc1ccc2c(O[C@@H]3C[C@H]4C(=O)N[C@]5(C(=O)NS(=O)(=O)C6(C)CC6)C[C@H]5/C=C\CC[C@@H](C)O[C@@H](C)[C@H](NC(=O)OC(C)(C)C(F)(F)F)C(=O)N4C3)nccc2c1 [Compound 2002, 1,1,1-trifluoro-2-methylpropan-2-yl ((2R,6S,7S,9R,13aS,14aR,16aS,Z)-2-((6-methoxyisoquinolin-1-yl)oxy)-7,9-dimethyl-14a-(((1-methylcyclopropyl)sulfonyl)carbamoyl)-5,16-dioxo-2,3,5,6,7,9,10,11,13a,14,14a,15,16,16a-tetradecahydro-1H-cyclopropa[i]pyrrolo[1,2-e][1,5,8]oxadiazacyclopentadecin-6-yl)carbamate] | 0.51 to 1 | 0.1 to 0.5 |
| COc1cnc(O[C@@H]2C[C@H]3C(=O)N[C@]4(C(=O)NS(=O)(=O)C5(C)CC5)C[C@H]4/C=C\CC[C@@H](C)O[C@@H](C)[C@H](NC(=O)OC(C)(C)C(F)(F)F)C(=O)N3C2)c2ccccc12 [Compound 2003, 1,1,1-trifluoro-2-methylpropan-2-yl ((2R,6S,7S,9R,13aS,14aR,16aS,Z)-2-((4-methoxyisoquinolin-1-yl)oxy)-7,9-dimethyl-14a-(((1-methylcyclopropyl)sulfonyl)carbamoyl)-5,16-dioxo-2,3,5,6,7,9,10,11,13a,14,14a,15,16,16a-tetradecahydro-1H-cyclopropa[i]pyrrolo[1,2-e][1,5,8]oxadiazacyclopentadecin-6-yl)carbamate] | 0.51 to 1 | 0.1 to 0.5 |
| CCOc1cnc(O[C@@H]2C[C@H]3C(=O)N[C@]4(C(=O)NS(=O)(=O)C5(C)CC5)C[C@H]4/C=C\CC[C@@H](C)O[C@@H](C)[C@H](NC(=O)OC(C)(C)C(F)(F)F)C(=O)N3C2)c2ccccc12 [Compound 2004, 1,1,1-trifluoro-2-methylpropan-2-yl ((2R,6S,7S,9R,13aS,14aR,16aS,Z)-2-((4-ethoxyisoquinolin-1-yl)oxy)-7,9-dimethyl-14a-(((1-methylcyclopropyl)sulfonyl)carbamoyl)-5,16-dioxo-2,3,5,6,7,9,10,11,13a,14,14a,15,16,16a-tetradecahydro-1H-cyclopropa[i]pyrrolo[1,2-e][1,5,8]oxadiazacyclopentadecin-6-yl)carbamate] | 0.51 to 1 | 0.1 to 0.5 |

From US9598433B2, “Hepatitis C virus inhibitors” (BRISTOL-MYERS SQUIBB COMPANY, priority 2012, dated 2017)
